Laboratory results taken from PubChem BioAssay (NCI).
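Each compound was tested at five concentrations against cells in 96-well plates for 48 hours. Abbreviation: GI50, concentration required for 50% inhibition of growth. Definition used: TGI = concentration required for complete inhibition of growth.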

Tests used:
Assay in all cases: inhibition of tumour cell growth, NCI panel, 48 h
[1] = tested on: M14 melanoma
[2] = tested on: MALME-3M melanoma
[3] = tested on: SK-MEL-28 melanoma
[4] = tested on: HCT-15 colon
[5] = tested on: DU-145 prostate
[6] = tested on: MDA-MB-231 breast
[7] = tested on: UACC-257 melanoma
[8] = tested on: KM12 colon
[9] = tested on: EKVX NSCLC
[10] = tested on: CCRF-CEM leukemia
[11] = tested on: SF-295 CNS
[12] = tested on: NCI-H226 lung
[13] = tested on: OVCAR-4 ovarian
[14] = tested on: OVCAR-5 ovarian
[15] = tested on: HL-60(TB) leukemia
[16] = tested on: SN12C renal
[17] = tested on: U251 CNS
[18] = tested on: HS 578T breast
[19] = tested on: NCI-H460 lung
[20] = tested on: HOP-62 NSCLC
[21] = tested on: ACHN renal
[22] = tested on: SK-OV-3 ovarian
[23] = tested on: NCI-H522 lung
[24] = tested on: BT-549 breast
[25] = tested on: PC-3 prostate
[26] = tested on: SF-268 CNS
[27] = tested on: TK-10 renal
[28] = tested on: OVCAR-3 ovarian
[29] = tested on: UO-31 renal
[30] = tested on: MCF7 breast
[31] = tested on: MDA-MB-435
[32] = tested on: SK-MEL-2 melanoma
[33] = tested on: MDA-MB-468 breast
[34] = tested on: RXF 393 renal
[35] = tested on: SR leukemia
[36] = tested on: RPMI-8226 leukemia
[37] = tested on: SK-MEL-5 melanoma
[38] = tested on: SNB-19 CNS
[39] = tested on: HT29 colon
[40] = tested on: COLO 205 colon
[41] = tested on: A549 NSCLC
[42] = tested on: HCT-116 colon
[43] = tested on: MOLT-4 leukemia
[44] = tested on: NCI/ADR-RES ovarian
[45] = tested on: OVCAR-8 ovarian
[46] = tested on: K-562 leukemia
[47] = tested on: CAKI-1 renal
[48] = tested on: SF-539 CNS
[49] = tested on: SW-620 colon
[50] = tested on: IGROV1 ovarian
[51] = tested on: HCC-2998 colon
[52] = tested on: UACC-62 melanoma
[53] = tested on: 786-0 renal
[54] = tested on: LOX IMVI melanoma
[55] = tested on: NCI-H23 lung
[56] = tested on: A498 renal

`COc1cc(OC)cc(-c2cc3ccc(N(C)C)cc3c(=O)[nH]2)c1` was tested, and the GI50 [1] was < 10.6 nM, the TGI [1] was > 48200 nM and the GI50 [2] was 24 nM. For the same compound, the TGI [2] was > 100000 nM, the GI50 [3] was 42.2 nM and the TGI [3] was > 100000 nM. The GI50 [4] was < 11.6 nM, the GI50 [5] was 45.6 nM and the TGI [5] was > 100000 nM. For the same compound, the GI50 [6] was 30.3 nM, the TGI [6] was 3600 nM and the GI50 [7] was > 100000 nM. For the same compound, the TGI [7] was > 100000 nM, the GI50 [8] was 31 nM and the TGI [8] was > 100000 nM. For the same compound, the GI50 [9] was 58.8 nM, the TGI [9] was > 100000 nM and the GI50 [10] was 39.6 nM. The TGI [10] was > 100000 nM, the GI50 [11] was < 10.6 nM and the GI50 [12] was 219 nM. The TGI [12] was > 100000 nM, the GI50 [13] was 1670 nM and the TGI [13] was > 100000 nM. The GI50 [14] was 35.7 nM, the TGI [14] was > 100000 nM and the GI50 [15] was < 11 nM. The TGI [15] was 43.4 nM, the GI50 [16] was 37.2 nM and the TGI [16] was > 100000 nM. For the same compound, the GI50 [17] was 15.1 nM, the TGI [17] was > 47000 nM and the GI50 [18] was 25.2 nM. For the same compound, the TGI [18] was > 100000 nM, the GI50 [19] was 34.1 nM and the TGI [19] was > 100000 nM. For the same compound, the GI50 [20] was 38 nM, the TGI [20] was > 100000 nM and the GI50 [21] was 52.2 nM. The TGI [21] was > 100000 nM, the GI50 [22] was 33.5 nM and the TGI [22] was > 100000 nM. The GI50 [23] was < 10 nM, the TGI [23] was 47.3 nM and the GI50 [24] was 38 nM. For the same compound, the TGI [24] was > 100000 nM, the GI50 [25] was 40 nM and the TGI [25] was > 100000 nM. The GI50 [26] was 354 nM, the TGI [26] was > 100000 nM and the GI50 [27] was > 100000 nM. The TGI [27] was > 100000 nM, the GI50 [28] was 19.1 nM and the TGI [28] was 37800 nM. The GI50 [29] was 52.3 nM, the TGI [29] was > 100000 nM and the GI50 [30] was 33.1 nM. For the same compound, the TGI [30] was > 100000 nM, the GI50 [31] was < 10 nM and the TGI [31] was 14.9 nM. The GI50 [32] was 25.6 nM, the TGI [32] was > 100000 nM and the GI50 [33] was 21.7 nM. The TGI [33] was 69 nM, the GI50 [34] was 15.5 nM and the TGI [34] was > 100000 nM. The GI50 [35] was < 10 nM, the TGI [35] was > 100000 nM and the GI50 [36] was 43.6 nM. The TGI [36] was > 100000 nM, the GI50 [37] was 17.1 nM and the TGI [37] was 145 nM. The GI50 [38] was 54.2 nM, the TGI [38] was > 100000 nM and the GI50 [39] was 16.4 nM. The TGI [39] was 52.9 nM, the GI50 [40] was 22.3 nM and the TGI [40] was 58.3 nM. The GI50 [41] was 39 nM, the TGI [41] was > 100000 nM and the GI50 [42] was < 13.5 nM. For the same compound, the TGI [42] was > 100000 nM, the GI50 [43] was 25.4 nM and the TGI [43] was > 100000 nM. For the same compound, the GI50 [44] was < 10 nM, the TGI [44] was 33.6 nM and the GI50 [45] was 29.8 nM. The TGI [45] was 187 nM, the GI50 [46] was < 10 nM and the TGI [46] was > 100000 nM. For the same compound, the GI50 [47] was 14.5 nM, the TGI [47] was > 100000 nM and the GI50 [48] was 11.7 nM. The TGI [48] was 42.6 nM, the GI50 [49] was < 10.6 nM and the TGI [49] was > 100000 nM. For the same compound, the GI50 [50] was 44.6 nM, the TGI [50] was > 100000 nM and the GI50 [51] was 25.7 nM. The TGI [51] was > 100000 nM, the GI50 [52] was < 10 nM and the TGI [52] was > 100000 nM. The GI50 [53] was 45.1 nM, the TGI [53] was > 63300 nM and the GI50 [54] was 19 nM. The TGI [54] was > 100000 nM, the GI50 [55] was 42.6 nM and the TGI [55] was > 100000 nM. The GI50 [56] was > 100000 nM and the TGI [56] was > 100000 nM.
